From EP2272817A1, “PAI-1 INHIBITOR” (Institute of Medicinal Molecular Design, Inc., priority 2008, dated 2009) come the findings set out here.

One may read the inhibition as how much of the control response was suppressed.
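Note: PAI-1 preincubated with compound, then two-chain tPA added, residual tPA activity read with fluorogenic Pyr-Gly-Arg-MCA substrate after 30 min at room temperature.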

The target in this assay is recombinant human PAI-1 (Homo sapiens, UniProt P05121). The experiment in a line: biochemical. Conditions: read-out: Inhibition Rate of PAI-1 Activity (%).
recombinant human PAI-1, sequence (P05121 24-402): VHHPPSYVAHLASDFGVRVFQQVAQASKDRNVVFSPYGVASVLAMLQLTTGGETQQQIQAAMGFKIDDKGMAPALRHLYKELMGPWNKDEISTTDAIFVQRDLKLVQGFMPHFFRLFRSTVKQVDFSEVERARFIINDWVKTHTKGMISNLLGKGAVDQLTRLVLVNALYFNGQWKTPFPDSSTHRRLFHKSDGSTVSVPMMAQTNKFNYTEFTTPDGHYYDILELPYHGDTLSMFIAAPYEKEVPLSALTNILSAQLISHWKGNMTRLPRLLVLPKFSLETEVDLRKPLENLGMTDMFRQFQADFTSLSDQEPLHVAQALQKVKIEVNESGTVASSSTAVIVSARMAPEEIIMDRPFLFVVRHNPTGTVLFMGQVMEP
In the case of `CCCCOc1ccc(-c2ccc(OC(F)(F)F)cc2)cc1N(CCCc1ccccc1)C(=O)C(=O)O` [Compound 235], the inhibition at 5 µM amounted to 66%, the inhibition at 10 µM came out at 89% and the inhibition at 25 µM worked out at 93%.

In the case of `CCCOc1ccc(-c2ccc(OC(F)(F)F)cc2)cc1N(CCCCc1ccccc1)C(=O)C(=O)O` [Compound 236], the inhibition at 5 µM came out at 61%, the inhibition at 10 µM was found to be 86% and the inhibition at 25 µM was 95%.

Take `CCC(CC)Oc1ccc(N(CCCc2ccccc2)C(=O)C(=O)O)c(-c2ccc(OC(F)(F)F)cc2)c1` [Compound 237]: the inhibition at 5 µM is 75% and the inhibition at 10 µM was found to be 92%.

Take `CC(C)Oc1ccc(N(CCCc2ccccc2)C(=O)C(=O)O)c(-c2ccc(OC(F)(F)F)cc2)c1` [Compound 239]: the inhibition at 5 µM came out at 43%, the inhibition at 10 µM stood at 80% and the inhibition at 25 µM stood at 98%.

`CCCOc1ccc(N(CCCCc2ccccc2)C(=O)C(=O)O)cc1-c1ccc(OC(F)(F)F)cc1` [Compound 240]: the inhibition at 5 µM was 62%, the inhibition at 10 µM was 91% and the inhibition at 25 µM is 95%.

As to `CCCCCOc1ccc(-c2ccc(OC(F)(F)F)cc2)cc1N(CCCCCc1ccccc1)C(=O)C(=O)O` [Compound 242], the inhibition at 5 µM came out at 88% and the inhibition at 10 µM was determined as 94%.

With `O=C(O)C(=O)N(CCCCc1ccccc1)c1ccc(N2CCOCC2)c(-c2ccc(OC(F)(F)F)cc2)c1` [Compound 243], the inhibition at 5 µM came out at 42%, the inhibition at 10 µM is 64% and the inhibition at 25 µM is 89%.

For `CCCCCOc1ccc(N(CCCCc2ccccc2)C(=O)C(=O)O)cc1-c1ccc(OC(F)(F)F)cc1` [Compound 244], the inhibition at 5 µM was determined as 71% and the inhibition at 10 µM was 91%.

Take `CCCCCCOc1ccc(-c2ccc(OC(F)(F)F)cc2)cc1N(CCCCc1ccccc1)C(=O)C(=O)O` [Compound 245]: the inhibition at 5 µM came out at 93% and the inhibition at 10 µM was found to be 97%.

For the compound `Cc1cc(N(C)C)c(-c2ccc(OC(F)(F)F)cc2)cc1N(CCCCc1ccccc1)C(=O)C(=O)O` [Compound 246], the inhibition at 5 µM was found to be 79% and the inhibition at 10 µM came out at 96%.

Turning to `O=C(O)C(=O)N(CCCCc1ccccc1)c1ccc(N2CCCCC2)c(-c2ccc(OC(F)(F)F)cc2)c1` [Compound 247], the inhibition at 5 µM amounted to 93% and the inhibition at 10 µM was determined as 99%.

On to `CC(C)Oc1ccc(N(CCCCc2ccccc2)C(=O)C(=O)O)cc1-c1ccc(OC(F)(F)F)cc1` [Compound 248], for which the inhibition at 5 µM turned out to be 60%, the inhibition at 10 µM stood at 89% and the inhibition at 25 µM was 96%.

`CC(C)(C)Oc1ccc(N(CCCCc2ccccc2)C(=O)C(=O)O)cc1-c1ccc(OC(F)(F)F)cc1` [Compound 249]: the inhibition at 5 µM worked out at 68% and the inhibition at 10 µM was determined as 89%.

Turning to `O=C(O)C(=O)N(CCCCc1ccccc1)c1ccc(N2CCCCC2=O)c(-c2ccc(OC(F)(F)F)cc2)c1` [Compound 250], the inhibition at 5 µM came to 83% and the inhibition at 10 µM stood at 78%.

Consider `CCCCCCN(C(=O)C(=O)O)c1ccc(Oc2ccc(OC(F)(F)F)cc2)cc1` [Compound 252], for which the inhibition at 5 µM is 3%, the inhibition at 10 µM was 6% and the inhibition at 25 µM amounted to 34%.

Turning to `O=C(O)C(=O)N(c1ccc(-c2ccc(OC(F)(F)F)cc2)cc1)C1CCCCC1` [Compound 253], the inhibition at 5 µM was found to be 9%, the inhibition at 10 µM was 16% and the inhibition at 25 µM turned out to be 36%.

As to `CCCCCN(C(=O)C(=O)O)c1ccc(-c2ccc(OC(F)(F)F)cc2)cc1` [Compound 254], the inhibition at 5 µM was determined as 3%, the inhibition at 10 µM stood at 9% and the inhibition at 25 µM was 31%.

As to `CC(C)(C)CN(C(=O)C(=O)O)c1ccc(-c2ccc(OC(F)(F)F)cc2)cc1` [Compound 255], the inhibition at 5 µM was determined as 2%, the inhibition at 10 µM turned out to be 8% and the inhibition at 25 µM was found to be 23%.

Take `O=C(O)CCc1cc(OCc2ccc(OC(F)(F)F)cc2)ccc1OCc1ccc(OC(F)(F)F)cc1` [Compound 404]: the inhibition at 5 µM came out at 14%, the inhibition at 10 µM worked out at 31% and the inhibition at 25 µM is 84%.

As to `CC(C)(C)c1ccc(COc2cc(/C=C/C(=O)O)cc(Oc3ccc(OC(F)(F)F)cc3)c2)cc1` [Compound 409], the inhibition at 5 µM worked out at 26%, the inhibition at 10 µM is 59% and the inhibition at 25 µM came to 97%.

As to `CC(C)(C)c1ccc(COc2cc(CCC(=O)O)cc(Oc3ccc(OC(F)(F)F)cc3)c2)cc1` [Compound 410], the inhibition at 5 µM came to 37%, the inhibition at 10 µM turned out to be 71% and the inhibition at 25 µM is 98%.

Regarding `CC(C)(C)c1ccc(COc2ccc(Nc3ccc(OC(F)(F)F)cc3)cc2CCC(=O)O)cc1` [Compound 412], the inhibition at 5 µM was determined as 22%, the inhibition at 10 µM is 46% and the inhibition at 25 µM worked out at 92%.

As to `CC(C)(C)c1ccc(COc2ccc(OCc3ccc(OC(F)(F)F)cc3)cc2/C=C/C(=O)O)cc1` [Compound 413], the inhibition at 5 µM turned out to be 38%, the inhibition at 10 µM was 66% and the inhibition at 25 µM is 84%.

Turning to `CC(C)(C)c1ccc(COc2ccc(OCc3ccc(OC(F)(F)F)cc3)cc2CCC(=O)O)cc1` [Compound 414], the inhibition at 5 µM was determined as 33%, the inhibition at 10 µM was 67% and the inhibition at 25 µM was 96%.

For the compound `CN(c1ccc(OC(F)(F)F)cc1)c1ccc(OCc2ccc(C(C)(C)C)cc2)c(CCC(=O)O)c1` [Compound 417], the inhibition at 5 µM amounted to 44%, the inhibition at 10 µM was determined as 79% and the inhibition at 25 µM was 98%.

As for `CC(C)(Nc1cc(-c2ccc(OC(F)(F)F)cc2)ccc1OCc1ccc(C(C)(C)C)cc1)C(=O)O` [Compound 420], the inhibition at 5 µM was 42%, the inhibition at 10 µM turned out to be 64% and the inhibition at 25 µM is 83%.

As to `CC(C)(C)c1ccc(-c2ccc(Oc3ccc(-c4ccc(OC(F)(F)F)cc4)cc3/C=C/C(=O)O)c(CCC(=O)O)c2)cc1` [Compound 540], the inhibition at 5 µM is 75%, the inhibition at 10 µM is 91% and the inhibition at 25 µM amounted to 91%.

Turning to `CC(C)(C)c1ccc(-c2ccc(Oc3ccc(-c4ccc(OC(F)(F)F)cc4)cc3CCC(=O)O)c(CCC(=O)O)c2)cc1` [Compound 541], the inhibition at 5 µM came out at 77%, the inhibition at 10 µM was 93% and the inhibition at 25 µM was above 99%.

Take `CC(C)(C)c1ccc(Oc2ccc(-c3ccc(OC(F)(F)F)cc3)cc2CCC(=O)O)c(CCC(=O)O)c1` [Compound 542]: the inhibition at 0.5 µM was 0%, the inhibition at 1 µM turned out to be 14% and the inhibition at 5 µM turned out to be 67%.

As to `CC(C)(C)c1ccc(COc2cc(-c3ccc(OC(F)(F)F)cc3)cc(O)c2OCC(=O)O)cc1` [Compound 546], the inhibition at 0.5 µM was determined as 4%, the inhibition at 1 µM was determined as 14% and the inhibition at 5 µM stood at 61%.

For the compound `CC(C)(C)c1ccc(CN(C(=O)CCC(=O)O)c2ccc(-c3ccc(OC(F)(F)F)cc3)cc2)cc1` [Compound 609], the inhibition at 5 µM was 38%, the inhibition at 10 µM was 69% and the inhibition at 25 µM was above 99%.

On to `CC(C)(C)c1ccc(CN(C(=O)C(=O)O)c2ccc(OCc3ccc(OC(F)(F)F)cc3)cc2)cc1` [Compound 616], for which the inhibition at 5 µM worked out at 49%, the inhibition at 10 µM was found to be 83% and the inhibition at 25 µM amounted to 96%.

As for `CC(C)(C)c1ccc(CN(C(=O)C(=O)O)c2cccc(OCc3ccc(OC(F)(F)F)cc3)c2)cc1` [Compound 619], the inhibition at 5 µM was determined as 48%, the inhibition at 10 µM worked out at 83% and the inhibition at 25 µM was found to be 92%.

On to `CC(C)(C)c1ccc(CN(C(=O)C(=O)O)c2ccccc2OCc2ccc(OC(F)(F)F)cc2)cc1` [Compound 620], for which the inhibition at 5 µM is 41%, the inhibition at 10 µM came out at 77% and the inhibition at 25 µM was found to be 95%.

Consider `CC(C)(C)c1ccc(CN(C(=O)C(=O)O)c2ccc(Sc3ccc(OC(F)(F)F)cc3)cc2)cc1` [Compound 621], for which the inhibition at 5 µM is 67%, the inhibition at 10 µM was 95% and the inhibition at 25 µM turned out to be 91%.

For the compound `CC(C)(C)c1ccc(CN(C(=O)C(=O)O)c2ccc(OCc3ccc(OC(F)(F)F)cc3)c(OCc3ccc(OC(F)(F)F)cc3)c2)cc1` [Compound 622], the inhibition at 5 µM was found to be 44%, the inhibition at 10 µM came out at 72% and the inhibition at 25 µM was found to be 88%.

Turning to `CN(C(=O)C(=O)O)c1ccc(OCc2ccc(OC(F)(F)F)cc2)c(OCc2ccc(OC(F)(F)F)cc2)c1` [Compound 623], the inhibition at 5 µM was 22%, the inhibition at 10 µM is 41% and the inhibition at 25 µM is 87%.

For the compound `Cc1ccc(N(Cc2ccc(C(C)(C)C)cc2)C(=O)C(=O)O)cc1OCc1ccc(OC(F)(F)F)cc1` [Compound 625], the inhibition at 5 µM came out at 59%, the inhibition at 10 µM amounted to 92% and the inhibition at 25 µM was found to be 91%.

For the compound `CC(C)(C)c1ccc(CN(C(=O)C(=O)O)c2ccc(Nc3ccc(OC(F)(F)F)cc3)cc2)cc1` [Compound 626], the inhibition at 5 µM amounted to 42%, the inhibition at 10 µM was determined as 77% and the inhibition at 25 µM was found to be 97%.

With `CC(C)(C)c1ccc(CN(C(=O)C(=O)O)c2ccc(Cl)c(OCc3ccc(OC(F)(F)F)cc3)c2)cc1` [Compound 629], the inhibition at 5 µM came out at 62%, the inhibition at 10 µM was 92% and the inhibition at 25 µM worked out at 88%.

With `CC(C)(C)c1ccc(CN(C(=O)C(=O)O)c2ccc(SCc3ccc(OC(F)(F)F)cc3)cc2)cc1` [Compound 630], the inhibition at 5 µM amounted to 56%, the inhibition at 10 µM is 89% and the inhibition at 25 µM was 88%.

Regarding `CC(C)(C)c1ccc(CN(C(=O)C(=O)O)c2ccccc2Sc2ccc(OC(F)(F)F)cc2)cc1` [Compound 631], the inhibition at 5 µM was 58%, the inhibition at 10 µM was 86% and the inhibition at 25 µM is 86%.
